Where a name gives a salt, the structure may show the parent alone.
System: brain
Assay: Transcriptional profiling, multi-dosing regimen, naïve mice: brain
Type: in vivo
Details: for FC: BRAIN_HEMI, 100MMF-vs-Veh
Method: In vivo, DMF is rapidly metabolized to monomethyl fumarate (MMF). […] Animals were exposed to CO2 and whole blood collected via cardiac puncture. Two 100 μl aliquots of whole blood were collected in 1.5 mL microcentrifuge tubes and snap frozen in liquid nitrogen. Peripheral (liver, spleen, kidney and jejunum) and CNS brain (cerebellum, hippocampus, striatum and cortex) tissues were harvested and snap frozen in liquid nitrogen, with special care taken to collect tissues of similar size and from the same location. All samples were stored at -80° C. until RNA extraction was conducted. For RNA preparation, frozen tissues were placed in 2 mL RNAse-free 96-well blocks with 1.5 mL QIAzol Lysis Reagent (QIAgen) and a 3.2 mm stainless steel bead (BioSpec Products, Bartlesville, Okla.). Tissues were disrupted for four cycles of 45 seconds in a Mini-Beadbeater (Biospec Products). RNA was extracted in chloroform and the aqueous phase was mixed with an equal volume of 70% ethanol. Extracted RNA was applied to RNeasy 96 plates and purified by the spin method according to the manufacturer's protocol (RNeasy 96 Universal Tissue Protocol, QIAgen, Hilden Germany). […] Two micrograms of biotin labeled […] probe were hybridized to Affymetrix GeneChip Affymetrix HT_MG-430_PM plate arrays with modified conditions as described in […] et al. Washing and staining of the hybridized arrays were completed as described in the GeneChip Expression analysis technical manual for HT plate arrays using the Genechip® Array Station (Affymetrix, Santa Clara, Calif.) with modifications as described in […] et al. The processed GeneChip® plate arrays were scanned using GeneTitan scanner (Affymetrix, Santa Clara, Calif.). Affymetrix scans were subject to quality control (QC) measures. These tests included a visual inspection of the distribution of raw signal intensities and an assessment of RNA degradation, relative log expression (RLE), and normalized unsealed standard error (NUSE). All sample scans that passed these QC metrics were included in the analysis. All CEL files were subjected to GC-content-based Robust Multi-array Average (GCRMA) normalization (version 2.20.0) (Irizarry R A, et al. Nucleic Acids Res 2003; 31:e15; Li C, et al. […] Stat Appl Genet Mol Biol 2004; 3:Article3). […] Springer Science+Business Media 2005). Changes in gene expression were studied by applying a linear modeling approach to fit gene expression levels according to the defined groups of samples (e.g. DMF-, MMF-, and Vehicle-treated animals) and Bayesian posterior error analysis as implemented by Smyth (Smyth G K. Stat Appl Genet Mol Biol 2004; 3:Article3). The comparisons considered included: DMF-vs-MMF, DMF-vs-Vehicle, and MMF-vs-Vehicle. […] Very few DEGs are observed in blood and tissues derived from the central nervous system (brain, cerebellum, cortex, striatum, and spinal cord).

`COC(=O)/C=C/C(=O)O` [MMF, monomethyl fumarate] gave an FC (0610037L13Rik 1429879_PM_at) of −1.51, an FC (1436646_PM_at (no gene symbol)) of −1.53 and an FC (1437987_PM_at (no gene symbol)) of −1.66. The FC (1438259_PM_at (no gene symbol)) was −1.59, the FC (2310079F09Rik 1433201_PM_at) was 2.17 and the FC (2610021A01Rik 1438786_PM_a_at) was −1.90. It also gave an FC (2610044O15Rik 1428693_PM_at) of −1.52, an FC (2900062L11Rik 1428333_PM_at) of −1.50 and an FC (4930432O21Rik 1434625_PM_at) of −1.66. It also gave an FC (4930453N24Rik 1438553_PM_x_at) of −1.61, an FC (4933421E11Rik 1428162_PM_at) of −1.50 and an FC (A730017C20Rik 1437528_PM_x_at) of −2.06. It also gave an FC (AI597468 1433897_PM_at) of −1.51, an FC (AI747699 1433914_PM_at) of −2.28 and an FC (Abi1 1438506_PM_s_at) of −2.04. The FC (Acad9 1429581_PM_at) was −1.55, the FC (Akr1a4 1430123_PM_a_at) was −1.75 and the FC (Aldh9a1 1436689_PM_a_at) was −1.63. The FC (Aldh18a1 1437325_PM_x_at) was −1.51, the FC (Ampd2 1438941_PM_x_at) was −1.76 and the FC (Apex1 1437715_PM_x_at) was −1.52. For the same compound, the FC (Appl1 1436116_PM_x_at) was −1.62, the FC (Arhgap21 1428369_PM_s_at) was −1.66 and the FC (Atp13a5 1436411_PM_at) was −1.51. For the same compound, the FC (Atxn10 1438653_PM_x_at) was −1.69, the “FC, Depp (1433836_PM_a_at)” value (BrainHemi, multi-dosing, MMF-vs-Vehicle) was −1.01 and the FC (Btg1 /// LOC100047353 1437455_PM_a_at) was −1.55. For the same compound, the FC (Cadm2 1429211_PM_at) was −1.76, the FC (Cadm2 1435146_PM_s_at) was −2.25 and the FC (Cherp 1436885_PM_a_at) was −1.99. It also gave an FC (Chuk 1428210_PM_s_at) of −1.68, an FC (Clcc1 1436390_PM_a_at) of −1.64 and an FC (Clvs1 1433906_PM_at) of −1.54. For the same compound, the FC (Cpt1a 1434866_PM_x_at) was −1.81, the FC (Cttnbp2 1435435_PM_at) was −1.75 and the FC (Dab2 1429693_PM_at) was 1.53. For the same compound, the FC (Ddx5 1438371_PM_x_at) was −1.52, the FC (Derl1 1437723_PM_s_at) was −1.51 and the FC (Dnpep 1438557_PM_x_at) was −1.50. It also gave an FC (Enoph1 1437327_PM_x_at) of −1.62, an FC (Fam13c 1436761_PM_s_at) of −1.83 and an FC (Fbxo11 1434108_PM_at) of −1.50. It also gave an FC (Gm5256 /// Gm5529 /// Slc25a5 1438360_PM_x_at) of −1.53, an FC (Gm5256 /// Gm5529 /// Slc25a5 1438922_PM_x_at) of −1.51 and an FC (Gm6159 /// Hnrnpr 1437526_PM_x_at) of −1.61. For the same compound, the FC (Gm11793 /// Hnrnpf 1437099_PM_x_at) was −1.53, the FC (Gm13342 /// Gm15776 /// Gm3150 /// Gng5 /// LOC100044719 1436946_PM_s_at) was −1.70 and the FC (Gm14288 1429712_PM_at) was −1.68. For the same compound, the FC (Gns 1433488_PM_x_at) was −2.01, the FC (Gria4 1436772_PM_at) was −1.57 and the FC (Hadhb 1437172_PM_x_at) was −1.86. For the same compound, the FC (Hbxip 1436152_PM_a_at) was −1.65, the FC (Higd1c /// Mettl7a1 /// Mettl7a2 1434150_PM_a_at) was −1.60 and the FC (Hnrpdl 1428224_PM_at) was −1.60. It also gave an FC (Hs3st2 1438624_PM_x_at) of −1.86, an FC (Impa1 1436848_PM_x_at) of −1.55 and an FC (Ing1 1433267_PM_at) of 1.53. It also gave an FC (Ipo4 1436420_PM_a_at) of −1.64, an FC (Itgb8 1436223_PM_at) of −1.59 and an FC (LOC100047324 /// Sesn1 1438931_PM_s_at) of −1.97. It also gave an FC (Laptm4b 1436915_PM_x_at) of −1.68, an FC (Lasp1 1438634_PM_x_at) of −1.50 and an FC (Mettl9 1438171_PM_x_at) of −1.63. The FC (Mthfd2l 1429599_PM_a_at) was −1.71, the FC (Ncoa2 1435233_PM_at) was −1.55 and the FC (Ndufb6 1434056_PM_a_at) was −1.56. The FC (Nelf 1436959_PM_x_at) was −1.65, the FC (Nxph1 1436718_PM_at) was −1.56 and the FC (Paics 1436298_PM_x_at) was −1.57. It also gave an FC (Paqr3 1429216_PM_at) of −1.56, an FC (Phyhipl 1437062_PM_s_at) of −1.69 and an FC (Pisd-ps1 /// Pisd-ps3 1436944_PM_x_at) of −2.43. The FC (Pofut2 1437845_PM_x_at) was −1.98, the FC (Poldip3 1437837_PM_x_at) was −1.74 and the FC (Polr3a 1437525_PM_a_at) was −1.76. It also gave an FC (Ppip5k2 1433856_PM_at) of −1.57, an FC (Prkg2 1435162_PM_at) of −1.69 and an FC (Prss23 1437671_PM_x_at) of −1.74. The FC (Ptpdc1 1433823_PM_at) was −1.59, the FC (Ptpn2 1438562_PM_a_at) was −1.74 and the FC (Rgs19 1434940_PM_x_at) was −1.51. For the same compound, the FC (Rif1 1429490_PM_at) was −1.82, the FC (Rnf14 1437035_PM_x_at) was −1.68 and the FC (Rnf157 1434427_PM_a_at) was −1.67. It also gave an FC (Sfrs13b 1437168_PM_at) of −1.66, an FC (Slc9a3r1 1438115_PM_a_at) of −1.85 and an FC (Slc12a6 1436989_PM_s_at) of −1.80. The FC (Snx16 1438803_PM_s_at) was −1.55, the FC (Sp4 1437508_PM_at) was −1.54 and the “Number of differentially expressed genes identified: Brain Hemi” value (Table 13: Naïve, Single Dose (so in the source), 90 mpk MMF-vs-Vehicle, 12 h after last dosing) was 280. It also gave an FC (Tchh 1434425_PM_at) of −1.64, an FC (Tmem41b 1428586_PM_at) of −1.89 and an FC (Tox3 1436600_PM_at) of −1.56. The FC (Trim9 1434249_PM_s_at) was −1.58, the FC (Ttc14 1437878_PM_s_at) was −1.64 and the FC (Tubgcp4 1433659_PM_at) was −1.54. For the same compound, the FC (Uba2 1437278_PM_a_at) was −1.50, the FC (Uba3 1435164_PM_s_at) was −1.65 and the FC (Zdhhc20 1434236_PM_at) was −1.64. For the same compound, the FC (Zfp110 1437236_PM_a_at) was −1.77, the FC (Zfp260 1436495_PM_s_at) was −1.65 and the FC (Zfp788 1429371_PM_at) was −1.65.
